These results are taken from US20260138969A1 (Korea Research Institute of Chemical Technology, priority 2023, published 2026).

Structures are written as SMILES. pIC50: −log10 of the molar value.

Assay [1] deals with T1, recombinant human ASK1 protein (Homo sapiens, UniProt Q99683).
T1 sequence (Q99683 1-1374): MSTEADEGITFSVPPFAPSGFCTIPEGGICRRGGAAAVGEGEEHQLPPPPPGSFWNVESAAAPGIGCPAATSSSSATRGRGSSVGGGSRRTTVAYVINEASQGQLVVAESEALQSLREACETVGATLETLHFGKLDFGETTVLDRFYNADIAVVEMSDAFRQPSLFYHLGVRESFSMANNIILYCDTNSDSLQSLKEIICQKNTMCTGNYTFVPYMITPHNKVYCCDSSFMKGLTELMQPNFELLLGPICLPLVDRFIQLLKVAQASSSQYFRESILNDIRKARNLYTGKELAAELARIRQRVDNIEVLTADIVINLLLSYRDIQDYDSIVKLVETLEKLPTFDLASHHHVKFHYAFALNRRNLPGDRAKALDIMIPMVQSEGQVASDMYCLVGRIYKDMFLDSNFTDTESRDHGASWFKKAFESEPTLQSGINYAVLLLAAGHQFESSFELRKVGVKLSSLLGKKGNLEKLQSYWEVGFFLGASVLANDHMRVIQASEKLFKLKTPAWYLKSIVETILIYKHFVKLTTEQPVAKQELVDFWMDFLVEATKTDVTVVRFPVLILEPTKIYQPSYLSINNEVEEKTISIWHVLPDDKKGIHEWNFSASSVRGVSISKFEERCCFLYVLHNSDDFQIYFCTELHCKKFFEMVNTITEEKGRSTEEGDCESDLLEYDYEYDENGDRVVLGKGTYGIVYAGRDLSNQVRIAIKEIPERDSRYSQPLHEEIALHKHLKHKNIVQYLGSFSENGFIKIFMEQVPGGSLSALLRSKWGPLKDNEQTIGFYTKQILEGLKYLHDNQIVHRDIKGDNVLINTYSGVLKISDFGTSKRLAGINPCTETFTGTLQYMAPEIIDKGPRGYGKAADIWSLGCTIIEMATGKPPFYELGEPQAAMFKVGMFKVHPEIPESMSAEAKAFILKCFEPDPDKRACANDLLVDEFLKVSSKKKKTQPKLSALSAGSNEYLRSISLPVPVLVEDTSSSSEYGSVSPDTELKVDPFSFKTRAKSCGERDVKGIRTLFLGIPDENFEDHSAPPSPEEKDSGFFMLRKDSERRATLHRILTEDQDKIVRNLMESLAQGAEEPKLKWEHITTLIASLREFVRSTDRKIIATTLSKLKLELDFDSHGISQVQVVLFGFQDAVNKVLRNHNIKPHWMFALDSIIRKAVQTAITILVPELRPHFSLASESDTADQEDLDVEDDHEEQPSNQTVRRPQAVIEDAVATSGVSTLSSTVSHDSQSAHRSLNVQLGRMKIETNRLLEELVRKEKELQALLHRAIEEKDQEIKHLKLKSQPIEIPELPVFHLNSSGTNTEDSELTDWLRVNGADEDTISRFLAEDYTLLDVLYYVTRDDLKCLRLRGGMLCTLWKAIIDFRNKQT
Description: Evaluation of ASK1 inhibition activity ([gamma-33P]-ATP, scintillation counting). Particulars: for remaining activity at 0.5 µM: activity of group without compound set at 100%, read-out: Remaining kinase activity (%) at 0.5 uM. The format is biochemical. Here is the method:
The recombinant human ASK1 protein was initiated by adding a mixture of Mg/ATP to the reaction solution (8 mM MOPS PH 7.0, 0.2 mM EDTA, 0.33 mg/mL myelin basic protein, 10 mM Mg Acetate and [gamma-33P]-ATP), and the reaction was terminated by adding 0.5% phosphoric acid after 40 min at room temperature.

Assay [2] relates to CDAHFD-induced non-alcoholic steatohepatitis mouse model. Nature of the assay: CDAHFD-induced non-alcoholic steatohepatitis mouse model: liver fibrosis (Picrosirius red). The format is in vivo. The settings on record: for Picrosirius red staining area in the liver: Selonsertib 30 mg/kg, Example 3 10 and 30 mg/kg, Example 2 10 and 30 mg/kg PO QD, CDAHFD diet 4 and 8 weeks. Here is the method: Creation of CDAHFD-induced NASH model and drug administration were carried out by dividing C57BL/6 male mice at 3 weeks of age into 7 groups as shown in Table 16 below. The control group (G1) was fed standard feed and water. Groups G2 to G7 were fed the CDAHFD (Research Diet Inc, #A06071302) diet for 4 and 8 weeks.
Picrosirius red staining was used for histological visualization of collagen fibers. Histopathology analysis evaluated the efficacy of improving liver fibrosis.
For mice in each group, three sections of the liver fixed with 4% PFA (paraformaldehyde) were prepared with paraffin blocks. Paraffin blocks were sectioned to a thickness of 5 μm (Histocore AUTOCUT R, Leica Microsystems, Germany) and the sections were mounted on silane-coated slides (MUTO, JPN) and stored until staining.
Xylene was used to remove paraffin from the slides, and the slides were moisturized and washed. The slides were stained with a solution of Picrosirius red (ab150681, Abcam, UK) and washed off with a solution of acetic acid. The slides were fitted after dehydration and cleaning using alcohol and xylene. For each section, two images of different areas were taken using a microscope (Axioscan7, ZEISS, Germany). The fibrotic area was measured using image J software compared to the total area. FIGS. 23a and 23b are graphs and images of Picrosirius red stained area ratios in the liver of a CDAHFD-induced mouse model of nonalcoholic steatohepatitis.

The subject of assay [3] is α-Syn transgenic Parkinson's disease mouse model. Description: α-Syn transgenic Parkinson's disease mouse model: neurological score (modified Irwin test). The format is in vivo. Particulars: Example 3 2/10/50 mg/kg, Example 2 2 mg/kg PO QD 5 months; vs TG+carrier (G2). Here is the method: The test drug was administered once daily (QD) via oral administration (PO) with a solution of 5 ml/kg for 5 months from 4 months to 9 months of age. Motor behavior tests (beam test) and neurological scores (modified Irwin test) were performed at 4 months (before administration), 7 months, and 9 months. After the final behavioral test, tissue samples were taken. Weight was measured on the same day once a week from 4 months of age until the end of the study.
Scores were recorded by direct observation of mice in cages for neurological behavioral disorders, except for startle reflex, tail pinch, and righting reflex. To test the startle reflex, a small remote control was used to make loud noises and check behaviors such as jumping, stopping, and blinking quickly. For the […] reflex, each mouse was removed from the cage and placed with its back facing the floor so that the mouse could correct its posture on its own. The tail pinch reflex was tested by gently squeezing the tip of the tail with forceps.
A score of 0 was given if there were normal or no abnormal features such as motor activity, 1 point if mild abnormalities were observed, and 2 to 3 points were given if serious abnormalities were observed. The scores for all observed behaviors for each mouse were added, and the average of the added scores for each group was calculated.

In general, pIC50 refers to the IC50 on a negative log10 scale, so that one unit is a factor of ten. Usually remaining activity stands for what remains of the control signal, in per cent. With `Cc1cc(F)c(C(=O)Nc2cccc(-n3nnc4c3CCC4)n2)cc1-n1cnc(C2CC2)c1` [Example 2, 5-(4-cyclopropyl-1H-imidazole-1-yl)-N-(6-(5,6-dihydrocyclopenta[d][1,2,3]triazole-1 (4H)-yl)pyridine-2-yl)-2-fluoro-4-methylbenzamide], in assay [1], the pIC50 was 7.43 and the remaining activity at 0.5 µM worked out at 2%. Moreover, the “efficacy in improving liver fibrosis (Picrosirius red)” value in assay [2] (30 mg/kg PO QD, after 4 weeks of the CDAHFD diet) is given as “most improved efficacy”. Also, the “Picrosirius red staining area in the liver” value in assay [2] was “significantly reduced”. Besides, the neurological score result in assay [3] is listed as “significantly reduced the neurological score of TG mice compared to G2”.
For `Cc1cc(F)c(C(=O)Nc2cccc(-n3nnc4c3CCCC4)n2)cc1-n1cnc(C2CC2)c1` [Example 3, 5-(4-cyclopropyl-1H-imidazole-1-yl)-2-fluoro-4-methyl-N-(6-(4,5,6,7-tetrahydro-1H-benzo[d][1,2,3]triazole-1-yl)pyridine-2-yl)benzamide], in assay [1], the pIC50 was 7.14 and the remaining activity at 0.5 µM came to 7%. The “Picrosirius red staining area in the liver” value in assay [2] is given as “significantly reduced”. In addition, in assay [3], the neurological score result is reported as “significantly reduced the neurological score of TG mice compared to G2”.
